The target of the assay is T1, serotonin transporter (Rattus norvegicus, UniProt P31652).
T1 construct: from tissue; host or cells: frontal cortex membranes of male Sprague-Dawley rats
In words: Displacement of specifically bound 3H-paroxetine from rat cortical membranes (affinity for the serotonin transporter). It counts as binding. How it is done: The affinity of drugs for the serotonin transporter was determined by assessing the ability of agents to displace specifically bound 3H-paroxetine binding from rat cortical membranes. […] Briefly, frontal cortical membranes prepared from male S.D. rats were incubated with ^3H-paroxetine (0.1 nM) for 60 min at 25°C. All tubes also contained either vehicle, test compound (one to eight concentrations), or a saturating concentration of fluoxetine (10 µM) to define […]. All reactions are terminated by the addition of ice cold Tris buffer followed by rapid filtration using a Tom Tech filtration device to separate bound from free ^3H-paroxetine. […] Nonspecific binding was determined using fluoxetine.

The mark [1] stands for this setting: compounds of formula 1, frontal cortical membranes from male S.D. rats, 3H-paroxetine 0.1 nM, 60 min at 25°C, Ki from IC50 by Cheng and Prusoff, read-out: Inhibition of [3H]-Paroxetine binding Ki.

Read-outs that look alike come from different tables or passages of the source.

T1 sequence (P31652 whole entry): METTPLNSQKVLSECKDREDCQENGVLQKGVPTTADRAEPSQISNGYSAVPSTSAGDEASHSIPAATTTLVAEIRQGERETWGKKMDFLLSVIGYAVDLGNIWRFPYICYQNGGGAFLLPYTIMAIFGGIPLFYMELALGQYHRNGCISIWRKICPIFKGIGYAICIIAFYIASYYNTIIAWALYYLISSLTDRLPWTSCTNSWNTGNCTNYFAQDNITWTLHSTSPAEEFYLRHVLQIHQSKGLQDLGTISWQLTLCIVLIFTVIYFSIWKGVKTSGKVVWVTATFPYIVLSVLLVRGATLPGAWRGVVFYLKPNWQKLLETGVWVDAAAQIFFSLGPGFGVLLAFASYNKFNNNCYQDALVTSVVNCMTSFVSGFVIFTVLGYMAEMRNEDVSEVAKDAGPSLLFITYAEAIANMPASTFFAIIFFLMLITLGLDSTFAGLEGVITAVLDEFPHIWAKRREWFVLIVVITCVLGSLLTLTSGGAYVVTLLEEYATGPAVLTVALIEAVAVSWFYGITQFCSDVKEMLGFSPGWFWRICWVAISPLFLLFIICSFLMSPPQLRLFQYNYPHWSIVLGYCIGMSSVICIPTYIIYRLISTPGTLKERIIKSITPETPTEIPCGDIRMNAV

As a reminder, the Ki is a dissociation constant, usually derived from enzyme kinetics or from competition with a known ligand. For the molecule `COc1ccccc1N1CCN(CCN2CCC(Cc3c[nH]c4ccc(F)cc34)CC2)CC1` [Example 1, 5-Fluoro-3-(1-{2-[4-(2-methoxyphenyl)piperazin-1-yl]ethyl}piperidin-4-ylmethyl)-1H-indole], the Ki under setting [1] amounted to 4.8 nM. Same read-out and setting: in the case of `COc1ccccc1N1CCN(CCCN2CCC(Cc3c[nH]c4ccc(F)cc34)CC2)CC1` [Example 3, 5-Fluoro-3-(1-{3-[4-(2-methoxyphenyl)piperazin-1-yl]propyl}piperidin-4-ylmethyl)-1H-indole] it was 1.2 nM.

Regarding `COc1ccccc1N1CCN(CCN2CC=C(c3c[nH]c4ccccc34)CC2)CC1` [Example 6, 3-(1-{2-[4-(2-methoxyphenyl)piperazin-1-yl]ethyl} 1,2,3,6-tetrahydropyridin-4-yl)-1H-indole], the inhibitory constant (Ki) was 10 nM. The molecule `COc1ccccc1N1CCN(CCN2CC=C(c3c[nH]c4ccc(F)cc34)CC2)CC1` [Example 7, 5-Fluoro-3-(1-{2-[4-(2-methoxyphenyl)piperazin-1-yl]ethyl} 1,2,3,6-tetrahydropyridin-4-yl)-1H-indole] registered an inhibition constant Ki of 19 nM.
